Experimental data reported in patent US11385223B2, “Anastasis biosensor” (THE JOHNS HOPKINS UNIVERSITY, priority 2012, dated 2022).
Numbered stars: 1 amine (or outer) side, 2 acyl side, 3 side chain; on linkers, the order of the positions; unused ones are H or OH. Bridge positions count the residues as written; N and C are the ends. Square brackets hold non-standard residues; d marks the D form. Peptide text beside a SMILES is read from it. I, II: the chains in the order shown. Actinocin(9to1) = Cc1c2oc3c(C)ccc(C(=O)[*:1])c3nc-2c(C(=O)[*:2])c(N)c1=O; NMeV = CN[C@H](C(=O)O)C(C)C; Sar = CNCC(=O)O

How the values were obtained:
NIH 3T3 cells = experiment: Apoptosis induction and its reversal in NIH 3T3 cells (morphology, caspase-3 Western blot); type: cell-based
[1] = test system: liver cells and NIH 3T3 cells; experiment: Transient actinomycin D exposure after removal of apoptotic inducers (caspase-3 Western blot, trypan blue exclusion); type: cell-based
Description: FIG. 14A-14F: Critical contributing factors in reversal of apoptosis. (FIG. 14A) RNA blot for detecting new RNA synthesis in untreated vs. treated and washed (Washed) liver cells 1 h after a 5-h exposure to 4.5% ethanol and with and without transient exposure (1 h, 1 μg/ml) to actinomycin D (AMD). No s4U served as negative control for the probe binding to RNA. (FIG. 14B) Western blot analysis of the cleavage of caspase-3 (Casp-3) on the total lysate of untreated, treated (5-h exposure to 4.5% ethanol for liver cells, 20-h exposure to 10% DMSO for NIH 3T3 cells), and washed liver cells and NIH 3T3 cells with and without transient exposure to actinomycin D (AMD) immediately after removal of apoptotic stimuli. The AMD-exposed cells were cultured in fresh medium for 23 h and then subjected to the analysis. c, cleaved form. […] The AMD exposed-cells were cultured in fresh medium for 23 h and then subjected to the assay. ns, p>0.05; *p<0.05; n=3 independent experiments. Error bars denote SD. (FIG. 14D) A time-course microarray study in liver cells, log 2-fold change of gene expression comparison between ethanol-induced apoptotic cells (RO), untreated cells (Ctrl), and induced cells that were then washed and further cultured in fresh medium for 3 (R3), 6 (R6), 24 (R24), and 48 h (R48). The log 2 signal values from three biological replicates were averaged (geometric mean) for each time point. […] The corresponding cells were exposed to the inhibitors after apoptotic stimuli had been removed from the treated cells and then further cultured for 24 h. ns, p>0.05; *P<0.05; n=3 independent experiments. Error bars denote SD. (FIG. 14F) Proposed model for reversal of apoptosis. Expression of multiple prosurvival factors and new transcripts during reversal of apoptosis promotes cell survival by suppressing the activated apoptotic pathways and repairing the cells.
To gain insight into the mechanism by which cells reverse apoptosis and survive, we first tested whether new transcription is required. […]

[2] = test system: primary mouse macrophages; experiment: Apoptosis induction and its reversal in primary macrophages (morphology); type: cell-based
[3] = test system: primary mouse liver cells
HeLa cells = experiment: Apoptosis induction and its reversal in HeLa cells expressing caspase biosensor NES-DEVD-YFP-NLS
[4] = test system: Mustela putoris furo (Mpf) brain cells; experiment: Apoptosis induction and its reversal in Mpf brain cells (morphology, annexin V-FITC); type: cell-based, ferret
[5] = transient exposure (1 h, 1 μg/ml) immediately after removal of apoptotic stimuli, then 23 h fresh medium
[6] = 4.3% ethanol 5 h, washed, cultured 2 h

C[S+](C)[O-] [DMSO, dimethyl sulfoxide]
cells that reversed all signs of apoptosis after removal of the inducer (NIH 3T3 cells; 10% DMSO 20 h, then washed, 24 h): > 90%
NIH 3T3 cells exhibiting multiple hallmarks of apoptosis (NIH 3T3 cells; 10% DMSO for 20 h): > 90%
caspase-3 cleavage (Western blot) (NIH 3T3 cells; NIH 3T3 cells induced with DMSO): increase in cleaved caspase-3

Cc1c2oc3c(C)ccc(C(=O)N[C@@H]4C(=O)N[C@H](C(C)C)C(=O)N5CCC[C@H]5C(=O)N(C)CC(=O)N(C)[C@@H](C(C)C)C(=O)O[C@@H]4C)c3nc-2c(C(=O)N[C@@H]2C(=O)N[C@H](C(C)C)C(=O)N3CCC[C@H]3C(=O)N(C)CC(=O)N(C)[C@@H](C(C)C)C(=O)O[C@@H]2C)c(N)c1=O [actinomycin D] (I: T[dV]P[Sar][NMeV] / II: T[dV]P[Sar][NMeV]; ester I:1-I:C, II:1-II:C; linker I:N-II:N via Actinocin(9to1))
cell death in control cells not treated with apoptotic inducers ([1]; same concentration of actinomycin D): did not cause significant cell death
caspase-3 cleavage (Western blot) after removal of apoptotic inducers [1, 5]: persistence of cleaved caspase-3
cell death by trypan blue staining after removal of apoptotic inducers [1, 5]: irreversible cell death

CC(C)(O)/C=C/C(=O)[C@](C)(O)[C@H]1[C@H](O)C[C@@]2(C)[C@@H]3CC=C4[C@@H](C=C(O)C(=O)C4(C)C)[C@]3(C)C(=O)C[C@]12C [cucurbitacin I]
cells that recovered morphology after removal of the inducer ([2]; 1 μM cucurbitacin I 24 h, then removal of inducer for 24 h): ~90%
cells displaying morphological hallmarks of apoptosis (nuclear condensation, mitochondrial fragmentation, cell shrinkage) ([2]; 1 μM cucurbitacin I for 24 h): Greater than 90%

CCO [ethanol]
cells that reversed all signs of apoptosis after removal of the inducer ([3]; 4.5% ethanol 5 h, then washed, 24 h): > 90%
morphological hallmarks of apoptosis (cell shrinkage, plasma membrane blebbing, nuclear condensation, altered mitochondrial morphology) ([3]; 4.5% ethanol for 2.5 h, time-lapse live-cell microscopy): displayed morphological hallmarks of apoptosis
liver cells that shrank and displayed morphological hallmarks of apoptosis ([3]; 4.5% ethanol for 5 h): > 80%
caspase-3 cleavage (Western blot) ([3]; liver cells induced with ethanol): increase in cleaved caspase-3
cells that recovered morphology after removal of the inducer (primary rat heart cells; 4.5% ethanol 5 h, then removal of inducer for 24 h): ~90%
cells labeled with annexin V-FITC (primary rat heart cells; 4.5% ethanol 5 h, annexin V-FITC applied ten minutes before washing): Greater than 90%
cells displaying morphological hallmarks of apoptosis (nuclear condensation, mitochondrial fragmentation, cell shrinkage) (primary rat heart cells; 4.5% ethanol for 5 h): Greater than 90%
cells that recovered normal morphology after removal of the inducer (HeLa cells; [6]): > 90%
recovered cells that retained nuclear YFP (HeLa cells; [6]): 32%
cells exhibiting morphological hallmarks of apoptosis (nuclear condensation, membrane blebbing, cell shrinkage) (HeLa cells; 4.3% ethanol for 3 h): vast majority
time to regain normal morphology after removal of the apoptotic inducer (HeLa cells; 4.3% ethanol, then washed): ≤ 2 h
formation of micronuclei after reversal of apoptosis (HeLa cells; after reversal of ethanol-induced apoptosis, cytokinesis-block micronucleus assay): Increased in formation of micronuclei

C/C1=C\[C@H](C)C[C@H](C)OC(=O)C[C@H](c2ccc(O)cc2)NC(=O)[C@@H](Cc2c(Br)[nH]c3ccccc23)N(C)C(=O)[C@H](C)NC(=O)[C@@H](C)C1 [jasplakinolide]
cells that recovered morphology after removal of the inducer ([4]; 2 μM jasplakinolide 50 h, then removal of inducer for 24 h): ~90%
cells labeled with annexin V-FITC ([4]; 2 μM jasplakinolide 50 h, annexin V-FITC applied ten minutes before washing): Greater than 90%
cells displaying morphological hallmarks of apoptosis (nuclear condensation, mitochondrial fragmentation, cell shrinkage) ([4]; 2 μM jasplakinolide for 50 h): Greater than 90%
